Assay results reported in PubChem BioAssay AID1963832 (Molecular Pharmacology Branch, DTP, NCI, 2024).
pIC50: −log10 of the molar value.

System: 885724-159-R-J1-PDC complex spheroid viability
Assay: Anticancer human tumor 885724-159-R-J1-PDC patient-derived pancreatic adenocarcinoma cell line growth inhibition [POLQ]
Settings: for pIC50: curve of first compound; for viability, T/C: stronger effect = lower value; active = viability on the fitted dose curve at most 10% of control; inactive = the rest
Protocol: Multicellular complex tumor spheroid response to Polymerase (POL) inhibitors (novobiocin, ART-558, RP6685) in combination with a variety of drugs and investigational agents in selected tumor cell lines
The POL inhibitors (novobiocin, ART-558, and RP6685) were evaluated both individually and in combination with standard of care and investigational anticancer small molecules within a complex spheroid model of solid tumors. . Complex spheroids include a stromal component modeled by human endothelial cells (HUVEC) and fibroblasts modeled by human mesenchymal stem cells (MSCs). The concentration ranges selected for each drug and investigational agent were based upon clinically achievable concentrations if the clinical Cmax of the agent was known.
Compounds. The drugs and investigational agents: novobiocin (NSC847541), ART-558 (NSC835418), RP-6685 (NSC848927), peposertib (NSC802822), ceralasertib (NSC780249), elimusertib (NSC800525), camonsertib (NSC841442), AZD-1390 (NSC803789), olaparib (NSC753686), talazoparib (NSC767125), rucaparib (NSC756644), sotorasib (NSC818433), MRTX-1133 (NSC836407), SN-38 (NSC673596), topotecan (NSC609699), epotoside (NSC141540), doxorubicin (NSC123127), gemcitabine (NSC613327), 5-fluorouracil (NSC19893), paclitaxel (NSC125973), vemurafenib (NSC761431), MSA-2 (NSC828583), SN-011 (NSC837082), adavosertib (NSC754352), prexasertib (NSC758257), carboplatin (NSC241240) and oxaliplatin (NSC266046), were obtained from the National Cancer Institute (NCI) Developmental Therapeutics Program Chemical Repository (21). The FDA-approved anticancer drug set is available from the Developmental Therapeutics Program at https://dtp.cancer.gov/organization/dscb/obtaining/. […] The stock solutions were prepared in dimethyl sulfoxide (DMSO, Sigma-Aldrich, St. Louis, MO, cat. D2650), except for the platinum compounds which were prepared in saline (Quality Biological, Gaithersburg, MD, cat. 114-055-101), at 800-fold the tested concentration and stored at -70 degrees C prior to their use. All drugs and investigational agents were tested over a range starting from a high concentration at or near the clinical Cmax and decreasing in half-log increments. If the clinical Cmax for an agent had not been determined, the highest concentration tested was 10 microM, except for SN-38, which was tested at a high concentration of 1 microM.
Cell Culture. All cells were maintained in an incubator at 37 degrees C and 5% CO2 with 95% humidity. The PDC lines were cultured according to standard operating procedures established by the NCI PDMR (https://pdmr.cancer.gov). Table 3 of the manuscript, lists the cell lines along with the number of the three cell types plated to form the mct-spheroids and media for tumor cell growth. After thawing, all PDC lines, except 997537-175-T-J1-PDC and 415267-285-R-J2-PDC, were cultured in Matrigel-coated flasks prepared with a working solution of 1X Ham's F-12 nutrient mix, without supplementation (Thermo Fisher Scientific, cat. 11765054), 100 U/mL penicillin-streptomycin (Thermo Fisher Scientific, cat. 15140122), and 2.5% Matrigel (Corning Inc., Corning, NY, cat. 354248) for the first three passages. The two PDC lines 997537-175-T-J1-PDC and 415267-285-R-J2-PDC were cultured on uncoated flasks. The 857933-349-R-J2-PDC line was cultured in 6C/Colon 1B media containing advanced DMEM/F-12 (Thermo Fisher Scientific, cat. 12634028), 10 mM HEPES (Thermo Fisher Scientific, cat. 15630080), 1X GlutaMAX supplement (Thermo Fisher Scientific, cat. 35050061), 0.1 mg/mL primocin (InvivoGen, San Diego, CA, cat. ant-pm-2), 10% defined fetal bovine serum, heat inactivated (HyClone Laboratories Inc., Logan, UT, cat. SH30070.03HI), 50% L-WRN conditioned media (ATCC, cat. CRL-3276), 1.25 mM N-Acetyl-L-cysteine (Sigma-Aldrich, cat. A9165), 10 mM nicotinamide (Sigma-Aldrich, cat. N0636), 1X B-27 supplement (Thermo Fisher Scientific, cat. 17504044), 1X N-2 supplement (Thermo Fisher Scientific, cat. […]
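Also: spheroids exposed to compounds for 7 days.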

CC(=O)O[C@H]1C(=O)[C@@]2(C)[C@H]([C@H](OC(=O)c3ccccc3)[C@]3(O)C[C@H](OC(=O)[C@H](O)[C@@H](NC(=O)c4ccccc4)c4ccccc4)C(C)=C1C3(C)C)[C@]1(OC(C)=O)CO[C@@H]1C[C@@H]2O + COC1C(OC(N)=O)C(O)C(Oc2ccc3c(O)c(NC(=O)c4ccc(O)c(CC=C(C)C)c4)c(=O)oc3c2C)OC1(C)C
< 5.52: pIC50 (second compound 0.0316 µM) | pIC50 (second compound 0.1 µM) | pIC50 (second compound 0.316 µM) | pIC50 (second compound 1 µM) | pIC50 (second compound 3.16 µM) | pIC50 (second compound 10 µM)
inactive: viability, T/C (second compound 0.0316 µM, first compound 0.00949 µM) 57.8% | viability, T/C (second compound 0.0316 µM, first compound 0.03 µM) 60.2% | viability, T/C (second compound 0.0316 µM, first compound 0.0949 µM) 55.6% | viability, T/C (second compound 0.0316 µM, first compound 0.3 µM) 59% | viability, T/C (second compound 0.0316 µM, first compound 0.949 µM) 59.9% | viability, T/C (second compound 0.0316 µM, first compound 3 µM) 61.6% | viability, T/C (second compound 0.1 µM, first compound 0.00949 µM) 66.1% | viability, T/C (second compound 0.1 µM, first compound 0.03 µM) 59.6% | viability, T/C (second compound 0.1 µM, first compound 0.0949 µM) 56.8% | viability, T/C (second compound 0.1 µM, first compound 0.3 µM) 66.1% | viability, T/C (second compound 0.1 µM, first compound 0.949 µM) 64.5% | viability, T/C (second compound 0.1 µM, first compound 3 µM) 56.8% | viability, T/C (second compound 0.316 µM, first compound 0.00949 µM) 64% | viability, T/C (second compound 0.316 µM, first compound 0.03 µM) 54.9% | viability, T/C (second compound 0.316 µM, first compound 0.0949 µM) 55.7% | viability, T/C (second compound 0.316 µM, first compound 0.3 µM) 56.6% | viability, T/C (second compound 0.316 µM, first compound 0.949 µM) 61.1% | viability, T/C (second compound 0.316 µM, first compound 3 µM) 68.4% | viability, T/C (second compound 1 µM, first compound 0.00949 µM) 65.4% | viability, T/C (second compound 1 µM, first compound 0.03 µM) 60% | viability, T/C (second compound 1 µM, first compound 0.0949 µM) 57.9% | viability, T/C (second compound 1 µM, first compound 0.3 µM) 62.3% | viability, T/C (second compound 1 µM, first compound 0.949 µM) 53.1% | viability, T/C (second compound 1 µM, first compound 3 µM) 56% | viability, T/C (second compound 3.16 µM, first compound 0.00949 µM) 64.3% | viability, T/C (second compound 3.16 µM, first compound 0.03 µM) 57.6% | viability, T/C (second compound 3.16 µM, first compound 0.0949 µM) 52.9% | viability, T/C (second compound 3.16 µM, first compound 0.3 µM) 56.3% | viability, T/C (second compound 3.16 µM, first compound 0.949 µM) 60.3% | viability, T/C (second compound 3.16 µM, first compound 3 µM) 66.5% | viability, T/C (second compound 10 µM, first compound 0.00949 µM) 60.6% | viability, T/C (second compound 10 µM, first compound 0.03 µM) 51.5% | viability, T/C (second compound 10 µM, first compound 0.0949 µM) 59.3% | viability, T/C (second compound 10 µM, first compound 0.3 µM) 56.5% | viability, T/C (second compound 10 µM, first compound 0.949 µM) 67.2% | viability, T/C (second compound 10 µM, first compound 3 µM) 67.4%

CC(C)n1c(=O)n(C)c2cnc3cc(F)c(-c4ccc(OCCCN5CCCCC5)nc4)cc3c21 + Nc1ccc(C#CCN(C(=O)Cc2ncc(C(F)(F)F)cc2C(F)(F)F)c2ccc(F)cc2)nn1
inactive: viability, T/C (second compound 0.0316 µM, first compound 0.0316 µM) 103% | viability, T/C (second compound 0.0316 µM, first compound 0.1 µM) 103% | viability, T/C (second compound 0.0316 µM, first compound 0.316 µM) 101% | viability, T/C (second compound 0.0316 µM, first compound 1 µM) 98.2% | viability, T/C (second compound 0.0316 µM, first compound 3.16 µM) 85.3% | viability, T/C (second compound 0.0316 µM, first compound 10 µM) 81.5% | viability, T/C (second compound 0.1 µM, first compound 0.0316 µM) 104% | viability, T/C (second compound 0.1 µM, first compound 0.1 µM) 94.9% | viability, T/C (second compound 0.1 µM, first compound 0.316 µM) 98% | viability, T/C (second compound 0.1 µM, first compound 1 µM) 98.9% | viability, T/C (second compound 0.1 µM, first compound 3.16 µM) 98.9% | viability, T/C (second compound 0.1 µM, first compound 10 µM) 93.7% | viability, T/C (second compound 0.316 µM, first compound 0.0316 µM) 104% | viability, T/C (second compound 0.316 µM, first compound 0.1 µM) 102% | viability, T/C (second compound 0.316 µM, first compound 0.316 µM) 96.3% | viability, T/C (second compound 0.316 µM, first compound 1 µM) 94.5% | viability, T/C (second compound 0.316 µM, first compound 3.16 µM) 94% | viability, T/C (second compound 0.316 µM, first compound 10 µM) 87.7% | viability, T/C (second compound 1 µM, first compound 0.0316 µM) 111% | viability, T/C (second compound 1 µM, first compound 0.1 µM) 104% | viability, T/C (second compound 1 µM, first compound 0.316 µM) 96.8% | viability, T/C (second compound 1 µM, first compound 1 µM) 97.8% | viability, T/C (second compound 1 µM, first compound 3.16 µM) 97% | viability, T/C (second compound 1 µM, first compound 10 µM) 84.9% | viability, T/C (second compound 3.16 µM, first compound 0.0316 µM) 98.4% | viability, T/C (second compound 3.16 µM, first compound 0.1 µM) 104% | viability, T/C (second compound 3.16 µM, first compound 0.316 µM) 98.1% | viability, T/C (second compound 3.16 µM, first compound 1 µM) 101% | viability, T/C (second compound 3.16 µM, first compound 3.16 µM) 90% | viability, T/C (second compound 3.16 µM, first compound 10 µM) 92.1% | viability, T/C (second compound 10 µM, first compound 0.0316 µM) 106% | viability, T/C (second compound 10 µM, first compound 0.1 µM) 97.4% | viability, T/C (second compound 10 µM, first compound 0.316 µM) 108% | viability, T/C (second compound 10 µM, first compound 1 µM) 103% | viability, T/C (second compound 10 µM, first compound 3.16 µM) 90.7% | viability, T/C (second compound 10 µM, first compound 10 µM) 73.7%
< 5.00: pIC50 (second compound 0.0316 µM) | pIC50 (second compound 0.1 µM) | pIC50 (second compound 0.316 µM) | pIC50 (second compound 1 µM) | pIC50 (second compound 3.16 µM) | pIC50 (second compound 10 µM)
